Experimental data published in patent publication US20130203778A1, “PHARMACEUTICAL COMPOSITION COMPRISING A PYRIMIDINEONE DERIVATIVE” (Glenmark Pharmaceuticals S.A., priority 2010, published 2013).

Key:
[1] = Solubility of Compound I with various hydrophilic carriers and in solid dispersion composition form at 25° C. (HPLC assay); type: physicochemical
Experimental: Buffers were prepared as per USP. Compound I (100 mg) equivalent was added to various buffers (100 ml) in presence of various hydrophilic carriers. The samples were sonicated for 15 minutes. A solid dispersion composition form of Compound I was also evaluated for solubility on similar lines. Quantification was done by assay method on HPLC by comparison with standard solution. The assay provided the relative amount of drug (mg/ml) in the sample solution. The results were extrapolated to represent the solubility in 900 ml of buffer solutions.
Preparation of Test solution: Compound I (100 mg) was added to various buffers (100 ml) in presence of various surfactants. The samples were sonicated for 15 minutes. Evaluation was done by assay method on HPLC by comparison with standard solution.
Mixture of 0.01M Ammonium Acetate Buffer and Acetonitrile in the ratio of 20:80% v/v.
Mixture of water and acetonitrile in the ratio of 20:80 v/v.
Column: Hypersil BDS C18, 150×4.6 mm, 5 μm
Column temperature: 25° C.

[2] = Qualitative solubility of Compound I in water and organic solvents; type: physicochemical
[3] = with Cetrimide, ratio (w/w) 1:10
[4] = with Cremophor EL, ratio (w/w) 1:10
[5] = with Gelucire 44/14, ratio (w/w) 1:10
[6] = with Hydroxypropyl beta-cyclodextrin, ratio (w/w) 1:10, BLD = Below limit of detection (0.01 ppm)
[7] = with Labrafil, ratio (w/w) 1:10
[8] = with Labrasol, ratio (w/w) 1:10
[9] = with Poloxamer 407, Compound I to carrier ratio (w/w) 1:1
[10] = with Sodium lauryl sulphate, ratio (w/w) 1:5, BLD = Below limit of detection (0.01 ppm)
[11] = with Tween 80, ratio (w/w) 1:10
[12] = with Tween 80, ratio (w/w) 1:30
[13] = with Vitamin E TPGS, ratio (w/w) 1:10
[14] = without hydrophilic carrier (1:0), BLD = Below limit of detection (0.01 ppm)

COc1cccc(/C=C/c2nc3sccn3c(=O)c2-c2ccc(OC(F)(F)F)cc2)c1OCC1CC1 [Compound I, 7-{(E)-2-[2-(cyclopropylmethoxy)-3-methoxyphenyl]vinyl}-6-(4-trifluoromethoxyphenyl)-5H-[1,3]thiazolo-[3,2-a]pyrimidin-5-one]
Solubility, Acetate Buffer pH 4.5 [1, 3]: 0.27 mg/900 ml
Solubility, Phosphate Buffer pH 6.8 [1, 3]: 0.45 mg/900 ml
Solubility, Simulated gastric fluid pH 1.2 [1, 3]: 0.54 mg/900 ml
Solubility, Acetate Buffer pH 4.5 [1, 4]: 2.61 mg/900 ml
Solubility, Phosphate Buffer pH 6.8 [1, 4]: 2.52 mg/900 ml
Solubility, Simulated gastric fluid pH 1.2 [1, 4]: 0.54 mg/900 ml
Solubility, Acetate Buffer pH 4.5 [1, 5]: 1.17 mg/900 ml
Solubility, Phosphate Buffer pH 6.8 [1, 5]: 0.99 mg/900 ml
Solubility, Simulated gastric fluid pH 1.2 [1, 5]: 0.09 mg/900 ml
Solubility, Acetate Buffer pH 4.5 ([1]; with HPMC, ratio (w/w) 1:5): 0.18 mg/900 ml
Solubility, Phosphate Buffer pH 6.8 ([1]; with HPMC, ratio (w/w) 1:5): 0.81 mg/900 ml
Solubility, Simulated gastric fluid pH 1.2 ([1]; with HPMC, ratio (w/w) 1:5): 0.72 mg/900 ml
Solubility, Acetate Buffer pH 4.5 [1, 6]: BLD
Solubility, Phosphate Buffer pH 6.8 [1, 6]: BLD
Solubility, Simulated gastric fluid pH 1.2 [1, 6]: BLD
Solubility, Acetate Buffer pH 4.5 [1, 7]: 0.27 mg/900 ml
Solubility, Phosphate Buffer pH 6.8 [1, 7]: 0.18 mg/900 ml
Solubility, Simulated gastric fluid pH 1.2 [1, 7]: 0.09 mg/900 ml
Solubility, Acetate Buffer pH 4.5 [1, 8]: 0.18 mg/900 ml
Solubility, Phosphate Buffer pH 6.8 [1, 8]: 0.72 mg/900 ml
Solubility, Simulated gastric fluid pH 1.2 [1, 8]: 0.36 mg/900 ml
Solubility, Acetate Buffer pH 4.5 [1, 9]: 0.18 mg/900 ml
Solubility, Phosphate Buffer pH 6.8 [1, 9]: 0.09 mg/900 ml
Solubility, Simulated gastric fluid pH 1.2 [1, 9]: 0.27 mg/900 ml
Solubility, Acetate Buffer pH 4.5 [1, 10]: BLD
Solubility, Phosphate Buffer pH 6.8 [1, 10]: BLD
Solubility, Simulated gastric fluid pH 1.2 [1, 10]: BLD
Solubility, Acetate Buffer pH 4.5 [1, 11]: 3.06 mg/900 ml
Solubility, Phosphate Buffer pH 6.8 [1, 11]: 3.69 mg/900 ml
Solubility, Simulated gastric fluid pH 1.2 [1, 11]: 0.45 mg/900 ml
Solubility, Acetate Buffer pH 4.5 [1, 12]: 8.82 mg/900 ml
Solubility, Phosphate Buffer pH 6.8 [1, 12]: 15.84 mg/900 ml
Solubility, Simulated gastric fluid pH 1.2 [1, 12]: 1.44 mg/900 ml
Solubility, Acetate Buffer pH 4.5 [1, 13]: 1.35 mg/900 ml
Solubility, Phosphate Buffer pH 6.8 [1, 13]: 1.80 mg/900 ml
Solubility, Simulated gastric fluid pH 1.2 [1, 13]: 0.63 mg/900 ml
Solubility, Acetate Buffer pH 4.5 [1, 14]: BLD
Solubility, Phosphate Buffer pH 6.8 [1, 14]: BLD
Solubility, Simulated gastric fluid pH 1.2 [1, 14]: BLD**
Solubility in acetone [2]: freely soluble
Solubility in chloroform [2]: freely soluble
Solubility in ethanol [2]: very slightly soluble
Solubility in methanol [2]: slightly soluble
Solubility in methylene dichloride [2]: freely soluble
Solubility in water ([2]; aqueous media having different pH ranging over 1.2 to 6.8): practically insoluble
